Measured values from PMC9917735, “Optimization of the Hemolysis Assay for the Assessment of Cytotoxicity” (International Journal of Molecular Sciences, 2023).
Like-named read-outs stand apart in the source and are kept apart here. No end group written: not given here.

Experiments:
human whole blood = conditions: human whole blood, 60 min 37 °C; for Calculated hemolysis ratio: peptides 100 μM, neg. PBS, 3 x 2 replicates
[1] = system: washed human erythrocytes; assay: Hemolysis assay, washed human erythrocytes
[2] = system: washed human erythrocytes; assay: Flow cytometry of treated erythrocytes with live/dead amine-reactive stain; format: cell-based; conditions: washed human erythrocytes treated 60 minutes, AMPs 100 μM, amine-reactive dye 488, flow cytometry 533/30 nm
Protocol: Briefly, a 1% washed erythrocyte solution was diluted to ~10^5 cells/mL and 0.4% Trypan blue (1:1 ratio) was added before 10 μL of the stained cell suspension was added to the Countess cell counting chamber slide. After a 30 s incubation, the slide was inserted into the instrument for automatic cell counting.
The Countess II automated cell counter (see above) was used to adjust the negative control sample to ~10^5 cells/mL and to subsequently dilute all samples by the same factor. Then, 0.5 μL of live/dead amine-reactive dye 488 (Fisher Scientific, Waltham, MA, USA) was added to 0.5 mL cell suspension and incubated for 30 min protected from light. Subsequently, the samples were washed twice with PBS pH 7 containing 1% bovine serum albumin (BSA), and finally resuspended in PBS pH 7 with 1% BSA. Cells were next counted, and the fluorescence measured using the 533/30 nm filter in an Accuri C6 flow cytometer (BD Biosciences, Franklin Lakes, NJ, USA).

mouse erythrocytes = conditions: Table 1, 1% erythrocytes, 100 µM
Description: (§1) Cytotoxicity studies are important during characterization of novel compounds or materials intended for interactions within human biological systems in vivo. Evaluation of the extent to which the compound induces disruption of the membrane of erythrocytes (red blood cells), thereby causing release of cellular content, often constitutes an initial step in such cytotoxicity assessments. The assay used in this context is generally referred to as the hemolysis assay, which has the advantages of being cheap, accessible, and simple to perform. Blood is drawn from a human or an animal, and next, the washed erythrocytes are incubated together with the compound or material under investigation. If the compound causes hemolysis, hemoglobin (along with other cellular constituents) will be released into the supernatant.
(§2) Blood from mice, rats, and rabbits was provided by the Department of Comparative Medicine at Oslo University Hospital (Marianne Aannestad). For mice and rats, the blood was collected from the heart by using 25 G and 21 G needles, respectively, whereas for rabbits, the blood was collected by free bleed through the ear using a yellow neoflon (24 G). All animals were wild type and anesthetized prior to the procedure.
(§3) All blood was collected in Lithium Heparin tubes 4 mL (Greiner Bio-One, Kremsmünster, Austria) or Coagulation sodium citrate 3.2% tubes 3 mL (Greiner Bio-One).
(§4) AMP 2 contained an N-terminal hexanoic acid moiety, whereas all peptides contained amidated C-termini. These three peptides were synthesized by Genscript Inc. (Piscataway, NJ, USA), and stock solutions of 1 mg/mL were made from the purchased powders. […] All peptides were diluted to yield a 100 μM final concentration in the hemolysis assays.
(§5) Triton X-100 (T8787) and Tween-20 (P2287) detergents were purchased from Sigma Aldrich and diluted to obtain 10% stock solutions by weighing (w/v). A sodium Dodecyl Sulfate (SDS) 10% solution was purchased from Invitrogen (Waltham, MA, USA, 15553027). All subsequent dilutions annotated in figures were made from these stocks.
(§6) As soon as possible after phlebotomy, the blood samples were centrifuged at 1700× g for 5 min. The supernatant was removed by aspiration and 2 mL of PBS pH 7 was added. The washing step was repeated three times or until the supernatant was clear. After final aspiration, the remaining pellet was diluted 1:100 in PBS pH 7 to obtain a 1% erythrocyte suspension (or 1:100, 1:50, and 1:20 for assays testing the effect of erythrocyte concentration). For experiments using whole blood, the washing steps were not performed, but downstream experimentation was identical. For experiments performed with 96-well plates, 50 μL of test compound, water, or detergent were mixed with 50 μL of blood sample (1% erythrocyte suspension or whole blood). For experiments using larger volumes, 250 μL of test compound, water, or detergent were mixed with 250 μL blood sample in an Eppendorf tube. Samples were subsequently incubated at 37 °C for 60 min (or 15, 30, 60, 90, or 120 min for assays evaluating the effect of incubation time). After incubation, the plates/tubes were centrifuged at 1700× g for 5 min, and then 50 μL of the supernatants were transferred to transparent, flat-bottom 96-well plates (Anicrin, A013418). Finally, absorption was measured at 405, 530, and 570 nm in a Victor Nivo Multimode microplate reader (Perkin Elmer, Waltham, MA, USA).

rabbit erythrocytes = conditions: Table S4: washed rabbit erythrocytes, OD 405 nm, AMPs 100 μM, 1 hour 37 °C, pos. 10% Triton X-100, neg. PBS; 3 x 2 replicates
Description: as §1, §2, §3, §4, §5, §6

rabbit whole blood = conditions: cf. Tables S3 and S4; 100 μM
Description: as §1, §2, §3, §4, §5, §6

rat erythrocytes = conditions: Table S4: washed rat erythrocytes, OD 405 nm, AMPs 100 μM, 1 hour 37 °C, pos. 10% Triton X-100, neg. PBS; 3 x 2 replicates
Description: as §1, §2, §3, §4, §5, §6

[3] = cited from earlier work
Protocol: OD measurements of human whole blood treated with hemolyzing agents or AMPs at 405 nm (A), 530 nm (B), and 570 nm (C) were recorded (Figure 6) and HRs calculated (Table 5). For comparison, we also included the two previously well-characterized AMPs melittin and polymyxin B, which exert high and low cytotoxicity, respectively. […] From 530 and 570 nm measurements, the expected conce ...

[4] = 10% detergent, highest absorbance
[5] = OD 405 nm (signal saturated), pos. 10% SDS
[6] = OD 570 nm, pos. 10% Triton X-100 (table title; text says 10% SDS)
[7] = human individual # 1, 1% erythrocytes, AMPs 100 µM, 60 min 37 °C, 405 nm, pos. 10% Triton X, neg. PBS, 3 x 2 replicates
[8] = human individual # 2, 1% erythrocytes, AMPs 100 µM, 60 min 37 °C, 405 nm, pos. 10% Triton X, neg. PBS, 3 x 2 replicates
[9] = human individual # 3, 1% erythrocytes, AMPs 100 µM, 60 min 37 °C, 405 nm, pos. 10% Triton X, neg. PBS, 3 x 2 replicates
[10] = human individual # 4, 1% erythrocytes, AMPs 100 µM, 60 min 37 °C, 405 nm, pos. 10% Triton X, neg. PBS, 3 x 2 replicates
[11] = human individual # 5, 1% erythrocytes, AMPs 100 µM, 60 min 37 °C, 405 nm, pos. 10% Triton X, neg. PBS, 3 x 2 replicates
[12] = human individual # 6, 1% erythrocytes, AMPs 100 µM, 60 min 37 °C, 405 nm, pos. 10% Triton X, neg. PBS, 3 x 2 replicates
[13] = human individual # 7, 1% erythrocytes, AMPs 100 µM, 60 min 37 °C, 405 nm, pos. 10% Triton X, neg. PBS, 3 x 2 replicates
[14] = human individual # 8, 1% erythrocytes, AMPs 100 µM, 60 min 37 °C, 405 nm, pos. 10% Triton X, neg. PBS, 3 x 2 replicates
[15] = human individual # 9, 1% erythrocytes, AMPs 100 µM, 60 min 37 °C, 405 nm, pos. 10% Triton X, neg. PBS, 3 x 2 replicates
[16] = human individual # 10, 1% erythrocytes, AMPs 100 µM, 60 min 37 °C, 405 nm, pos. 10% Triton X, neg. PBS, 3 x 2 replicates

**Q.** Which “Blood clotting in whole blood” value (human whole blood; melittin 100 μM) does the source give for Tween-20 [reference compound] here?
**A.** Its value is “tendency of the blood to clot at higher Tween concentrations”.

**Q.** Which “Absorbance of free hemoglobin at 530 nm” value (human whole blood; [4]) does the source give for `CCCCCCCCCCCCOS(=O)(=O)[O-].[Na+]` [SDS, Sodium Dodecyl Sulfate, reference compound] here?
**A.** Its value is 2.2.

**Q.** What about the “Absorbance of free hemoglobin at 570 nm” value (human whole blood; [4]) of the same compound?
**A.** The value was 1.7.

**Q.** And the “Peak OD of free hemoglobin” value ([1]; at 0.02% detergent, human erythrocytes, decreases at higher concentrations (Figure S3))?
**A.** Its value is 0,8.

**Q.** What does the source list for `O` [dH2O, distilled water]?
**A.** Fluorescence intensity per cell of remaining intact cells (live/dead stain) [2]: low fluorescence; Calculated hemolysis ratio (human whole blood; [5]): 98.2 ± 0.4%; Calculated hemolysis ratio (human whole blood; OD 530 nm, pos. 10% SDS): 38.4 ± 8.5%; Calculated hemolysis ratio (human whole blood; [6]): 62.8 ± 1.4%; Calculated hemolysis ratio ([1]; 1% washed human erythrocytes, OD 530 nm, peptides 100 μM, 60 min 37 °C, pos. 10% Triton X-100, neg. PBS, 3 x 2 replicates): 67.6 ± 8.7%; Calculated Hemolysis (%) ([1]; 2% pooled human erythrocytes, AMPs 100 µM, 60 min 37 °C, 405 nm, pos. 10% Triton X-100, neg. PBS, 3 x 2 replicates): 27.1 ± 2.7%; Calculated Hemolysis (%) ([1]; 5% pooled human erythrocytes, AMPs 100 µM, 60 min 37 °C, 405 nm, pos. 10% Triton X-100, neg. PBS, 3 x 2 replicates): 22.7 ± 9%; Calculated hemolysis ratio ([1]; Table 2: pooled blood from all 10 individuals, 1% erythrocytes, AMPs 100 µM, 60 min 37 °C, 405 nm, pos. 10% Triton X, neg. PBS, 3 x 2 replicates): 32.6 ± 7.3%; Calculated Hemolysis (%) ([1]; Table 3: 1% pooled human erythrocytes, AMPs 100 µM, 60 min 37 °C, 405 nm, pos. 10% Triton X-100, neg. PBS, 3 x 2 replicates): 32.6 ± 7.3%; Calculated hemolysis ratio ([1]; Table 4: incubation 60 min, 37 °C, 1% human erythrocytes, AMPs 100 µM, 405 nm, pos. 10% Triton X-100, neg. PBS, 3 biological x 2 technical replicates): 37.1 ±14.2%; Calculated hemolysis ratio ([1]; Table 6: 1% washed human erythrocytes, OD 405 nm, peptides 100 μM, 60 min 37 °C, pos. 10% Triton X-100, neg. PBS, 3 x 2 replicates): 73.9 ± 7.5%; Calculated hemolysis ratio [1, 7]: 38 ± 12.3%; Calculated hemolysis ratio [1, 8]: 57.7 ± 12.2%; Calculated hemolysis ratio [1, 9]: 50.8 ± 8.8%; Calculated hemolysis ratio [1, 10]: 47.2 ± 5.6%; Calculated hemolysis ratio [1, 11]: 38.8 ± 12.1%; Calculated hemolysis ratio [1, 12]: 36.2 ± 10.8%; Calculated hemolysis ratio [1, 13]: 49.6 ± 15.2%; Calculated hemolysis ratio [1, 14]: 49.4 ± 16.9%; Calculated hemolysis ratio [1, 15]: 49.1 ± 22.5%; Calculated hemolysis ratio [1, 16]: 39.4 ± 10.7%; Calculated hemolysis ratio ([1]; incubated in polypropylene tubes, 1% washed human erythrocytes, peptides 100 μM, 60 min 37 °C, 405 nm, pos. 10% Triton X-100, neg. PBS, 3 x 2 replicates): 29.5 ± 6%; Calculated hemolysis ratio ([1]; incubated in polystyrene tubes, 1% washed human erythrocytes, peptides 100 μM, 60 min 37 °C, 405 nm, pos. 10% Triton X-100, neg. PBS, 3 x 2 replicates): 43.1 ± 18.6%; Calculated hemolysis ratio ([1]; incubation 15 min, 37 °C, 1% human erythrocytes, AMPs 100 µM, 405 nm, pos. 10% Triton X-100, neg. PBS, 3 biological x 2 technical replicates): 32.8 ± 12.1%; Calculated hemolysis ratio ([1]; incubation 30 min, 37 °C, 1% human erythrocytes, AMPs 100 µM, 405 nm, pos. 10% Triton X-100, neg. PBS, 3 biological x 2 technical replicates): 34.8 ± 12.7%; Calculated hemolysis ratio ([1]; incubation 90 min, 37 °C, 1% human erythrocytes, AMPs 100 µM, 405 nm, pos. 10% Triton X-100, neg. PBS, 3 biological x 2 technical replicates): 40.1 ±13.9%; Calculated hemolysis ratio ([1]; incubation 120 min, 37 °C, 1% human erythrocytes, AMPs 100 µM, 405 nm, pos. 10% Triton X-100, neg. PBS, 3 biological x 2 technical replicates): 47 ± 13.6%; Calculated hemolysis ratio ([1]; total incubation volume 100 μL, 1% washed human erythrocytes, peptides 100 μM, 60 min 37 °C, 405 nm, pos. 10% Triton X-100, neg. PBS, 3 x 2 replicates): 43.1 ± 18.6%; Calculated hemolysis ratio ([1]; total incubation volume 500 μL, 1% washed human erythrocytes, peptides 100 μM, 60 min 37 °C, 405 nm, pos. 10% Triton X-100, neg. PBS, 3 x 2 replicates): 31.4 ± 10.7%

**Q.** What does the source list for “MNLVDRAILIRKRRRAALQLRDKVLRYLK-NH2 [AMP 1]”?
**A.** HR in mouse sample compared to rabbit sample (mouse erythrocytes): over four times higher; Hemolysis ratio (rabbit erythrocytes): 7.1 +/- 1.1%; Fold decrease of hemolytic effect in rabbit whole blood vs washed rabbit erythrocytes (rabbit whole blood): slightly increased hemolytic effect; Hemolysis ratio (rat erythrocytes): 12.9 +/- 1.7%; Minimum inhibitory concentration (E. coli) (E. coli): 2 µM; Fold difference in HR at 120 min incubation relative to the shortest incubation times ([1]; 1% washed human erythrocytes, 405 nm, Table 4): 1.65 fold; Calculated hemolysis ratio [1, 7]: 21.9 ± 4%; Calculated hemolysis ratio [1, 8]: 23 ± 2.8%; Calculated hemolysis ratio [1, 9]: 23.7 ± 2.1%; Calculated hemolysis ratio [1, 10]: 21.3 ± 3%; Calculated hemolysis ratio [1, 11]: 19.7 ± 3.7%; Calculated hemolysis ratio [1, 12]: 19.6 ± 4.7%; Calculated hemolysis ratio [1, 13]: 18.8 ± 4%; Calculated hemolysis ratio [1, 14]: 21.7 ± 8.6%; Calculated hemolysis ratio [1, 15]: 22.9 ± 6.8%; Calculated hemolysis ratio [1, 16]: 25.1 ± 13%; Observed hemolytic properties (qualitative) ([1]; reason for choice of the AMPs): medium

**Q.** With Polymyxin B [PMB, reference compound] as the compound, how does the Calculated hemolysis ratio (human whole blood; [5]) read?
**A.** Its Calculated hemolysis ratio is 3.1 ± 1.1%.

**Q.** What about the Calculated hemolysis ratio (human whole blood; OD 530 nm, pos. 10% SDS) of the same compound?
**A.** Its Calculated hemolysis ratio is 3 ± 2.4%.

**Q.** And the Calculated hemolysis ratio (human whole blood; [6])?
**A.** The Calculated hemolysis ratio was 4.5 ± 1.8%.

**Q.** What about the “Cytotoxicity (qualitative)” value [3] of the same compound?
**A.** Its value is “low”.
